# Several values for one entry are separate records, joined by “and”; a condition that tells them apart may be missing. Identical values can stand only once.
# Tested on: hypertensive patients
# Assay: Special investigation of combined use of cilnidipine and ARB: occurrence of side-effects (safety analysis)
# Assay type: in vivo, human
# Details: for side-effect number of cases / side-effect number of examples: cilnidipine and ARB; for side-effect occurence rate (%): combined administration of cilnidipine and ARB
# Procedure: A special investigation was conducted in various medical centers, compiled, and analyzed to evaluate the safety and availability of the combined use of cilnidipine and at least one angiotensin II receptor blocker.
# The investigation was conducted mainly in the departments of internal medicine/cardiovascular diseases of various medical institutions. The target of the estimated collected cases was about 3000 cases.
# The subjects of the investigation were hypertensive patients which were adapted to cilnidipine. Combined administration of cilnidipine and ARB was started for the treatment of hypertension in these patients.
# A prospective continuous investigation method was conducted. Such a method is continuously conducted with the registered cases with the combined administration of cilnidipine (Atelec®) and ARB, until the number of cases reaches the contracted cases for each center.
# Regarding the administration method of cilnidipine, 5 to 10 mg of cilnidipine was orally administered after breakfast once a day. Meanwhile, the amount may increase or decrease depending on patient's age, symptoms, or the like. When the effect is insufficient, the amount can be increased to 20 mg once a day. The dosing period of cilnidipine was set to 12 weeks in principle.
# The following items were tracked during the investigation: patient's background (sex), existence or nonexistence of previous therapeutic agents and the content thereof, targeted blood pressure (systolic BP/diastolic BP), the conditions of administration of cilnidipine and ARB, antihypertensives used in combination (those other than cilnidipine or ARB), clinical course (systolic BP/diastolic BP/heart rate), and occurrence of side-effects. As for the availability of the combined administration, in the 12th week after starting the combined administration, the doctor in attendance judged the degree of the blood pressure controls on a three-point scale of “well-controlled”, “nearly well-controlled” and “poorly-controlled”, referring to the changes in the systolic and diastolic BP. As for the safety and availability analysis for each patient background, Fisher's exact probability test or the X^2 test was used. As for the blood pressure and heart rate, the average value and the standard deviation were calculated for the subjects before the combined administration (within 4 weeks before starting the combined administration), and data after starting the combined administration were determined on each observation day, and analysis was conducted by using a paired t-test. The test was conducted as the two-sided test and less than 5% of the risk rate was regarded as significant. Furthermore, side-effects were compiled based on the naming of preferred terms (PT) of MedDRA/J ver 8.0.
# The ratios of the cases wherein side-effects occurred were compared and examined between the sexes in the 2920 cases of the safety analysis (Table 5). […] The ratio thereof in a female group was 3.2% and that in a male group was 1.8%. […] The side-effects observed were mainly subjective symptoms such as headache, palpitation, and free-floating dizziness. Meanwhile, the ratio of the cases wherein the side-effects of these subjective symptoms occurred was low, and it is not a serious side-effect caused by the combined administration.
structure (smiles),measurement,setting,value
"COCCOC(=O)C1=C(C)NC(C)=C(C(=O)OC/C=C/c2ccccc2)C1c1cccc([N+](=O)[O-])c1 (racemic) [cilnidipine, 2-methoxyethyl-3-phenyl-2(E)-propenyl(±)-1,4-dihydro-2,6-dimethyl-4-(3-nitrophenyl)-3,5-pyridinedicarboxylate]",ratio of the cases wherein side-effects occurred,cases on ARB alone to which cilnidipine was additionally administered,low
same,side-effect number of cases,"female group, 1,481 cases",56
same,side-effect number of examples,"female group, 1,481 cases",47
same,side-effect occurence rate (%),"female group, 1,481 cases",3.2% and 3.17%
same,side-effect number of cases,"male group, 1,416 cases",32
same,side-effect number of examples,"male group, 1,416 cases",26
same,side-effect occurence rate (%),"male group, 1,416 cases",1.8% and 1.84%
same,side-effect number of cases,"sex unknown, 23 cases",0
same,side-effect number of examples,"sex unknown, 23 cases",0
same,side-effect occurence rate (%),"sex unknown, 23 cases",0%

# Reference: US20080051438A1, “Preventive/Therapeutic Compositions Useful for Treating Cardiovascular Diseases” (priority 2006, published 2008)
